Converted amounts (≈) assume the structure as drawn. Like-named read-outs stand apart in the source and are kept apart here. Starred links: 1 amine or outer side, 2 acyl side, 3 side chain; linkers in the order of their positions; H or OH if unused. Positions of bridges follow the written chain, without caps; N, C: chain ends. Residues, ends and D or L forms follow the SMILES beside them. *: point of attachment. C20 diacid = O=C(O)CCCCCCCCCCCCCCCCCCC(=O)*; γGlu = O=C(O)[C@H](CCC(=O)[*:2])N[*:1]
Columns and labels:
[1] = molecular target: T1, human amylin receptor (amylin 3(a) receptor: human calcitonin receptor + RAMP-3) (Homo sapiens, UniProt O60896+P30988); experiment: Assay (II)a functional CRE-luciferase assay, human amylin receptor; format: cell-based; conditions: Table 2; BHK amylin 3(a)-receptor/CRE-luc cells
T1 construct: expressed in transfected cells; host or cells: BHK570
T1 sequence (P30988 25-474): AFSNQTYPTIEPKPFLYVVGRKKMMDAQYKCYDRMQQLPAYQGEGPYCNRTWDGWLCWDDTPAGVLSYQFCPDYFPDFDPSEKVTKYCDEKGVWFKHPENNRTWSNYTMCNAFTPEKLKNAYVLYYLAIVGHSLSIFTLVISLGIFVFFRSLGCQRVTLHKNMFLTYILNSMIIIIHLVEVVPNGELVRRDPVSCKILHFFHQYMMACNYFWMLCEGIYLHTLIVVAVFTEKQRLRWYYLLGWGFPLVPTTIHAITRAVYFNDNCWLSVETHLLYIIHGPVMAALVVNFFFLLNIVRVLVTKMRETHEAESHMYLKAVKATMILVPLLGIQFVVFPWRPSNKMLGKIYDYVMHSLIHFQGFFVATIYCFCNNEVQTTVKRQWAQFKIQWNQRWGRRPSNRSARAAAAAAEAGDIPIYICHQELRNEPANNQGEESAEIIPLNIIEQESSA
T1 sequence (O60896 24-148 partner): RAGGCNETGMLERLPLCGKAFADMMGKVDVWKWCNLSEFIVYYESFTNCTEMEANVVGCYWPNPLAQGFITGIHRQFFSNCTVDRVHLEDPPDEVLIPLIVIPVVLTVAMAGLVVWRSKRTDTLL

[2] = Assay (IX) pK, determination of T½ in mini-pig; format: in vivo, Göttingen mini-pigs; conditions: male, Göttingen, iv, 2 nmol/kg; minipig; plasma terminal half-life
[3] = molecular target: T2, rat amylin 3(a) receptor (rat calcitonin(a) receptor + rat RAMP3) (Rattus norvegicus, UniProt P32214+Q9JJ73); experiment: Assay (II)b functional cAMP FlashPlate assay, rat amylin receptor; format: cell-based; conditions: Table 11
T2 construct: expressed in transfected cells; host or cells: BHK tk'ts 13
T2 sequence (P32214 25-479 isoform P32214-2 limits assumed): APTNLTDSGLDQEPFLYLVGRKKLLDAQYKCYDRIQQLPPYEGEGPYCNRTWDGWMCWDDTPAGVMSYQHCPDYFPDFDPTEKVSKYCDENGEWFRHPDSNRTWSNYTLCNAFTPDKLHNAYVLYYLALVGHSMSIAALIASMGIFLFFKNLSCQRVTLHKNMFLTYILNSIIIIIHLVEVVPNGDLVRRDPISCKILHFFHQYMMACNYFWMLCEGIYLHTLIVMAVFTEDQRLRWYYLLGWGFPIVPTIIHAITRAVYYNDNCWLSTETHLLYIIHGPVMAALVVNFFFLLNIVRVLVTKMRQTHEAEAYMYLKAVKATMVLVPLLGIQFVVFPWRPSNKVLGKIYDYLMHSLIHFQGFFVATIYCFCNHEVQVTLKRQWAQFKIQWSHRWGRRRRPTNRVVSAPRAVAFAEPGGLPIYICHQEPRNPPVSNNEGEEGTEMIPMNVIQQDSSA
T2 sequence (Q9JJ73 23-147 partner): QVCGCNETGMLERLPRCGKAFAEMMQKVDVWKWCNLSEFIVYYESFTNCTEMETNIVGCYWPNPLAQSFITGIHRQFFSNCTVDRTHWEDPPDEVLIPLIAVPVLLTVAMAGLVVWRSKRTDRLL
Outline: (§1)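 BHK tk'ts 13 cells transiently transfected with rat calcitonin(a) receptor, alone or with rat RAMP3 (amylin 3(a)), were stimulated 24 hours later with sample for 30 min in buffer containing IBMX. cAMP measured by competitive radioactive FlashPlate assay, scintillation read after 3 h detection incubation.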

[4] = Assay (IV) determination of solubility; format: physicochemical
Outline: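 Polypeptide in water (~500 nmol/ml) mixed 1:1 with 100 mM glycylglycine (pH 3.0–5.0) or bistrispropane (pH 6.0–8.0) buffers. Held 18 hours at room temperature, then centrifuged. Polypeptide remaining in solution quantified by HPLC.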

[5] = molecular target: T3, human calcitonin receptor (Homo sapiens, UniProt P30988); experiment: Assay (II)a functional CRE-luciferase assay, human calcitonin receptor; format: cell-based; conditions: Table 7; human calcitonin (CTa) receptor
T3 construct: expressed in transfected cells; host or cells: BHK570
T3 sequence (P30988 25-474): T1 sequence (P30988 25-474)

[6] = molecular target: T4, rat calcitonin (a) receptor (Rattus norvegicus, UniProt P32214); experiment: Assay (II)b functional cAMP FlashPlate assay, rat calcitonin receptor; format: cell-based; conditions: Table 11; read-out: CTa receptor rat EC50
T4 construct: expressed in transfected cells; host or cells: BHK tk'ts 13
T4 sequence (P32214 25-479 isoform P32214-2 limits assumed): T2 sequence (P32214 25-479 isoform P32214-2 limits assumed)
Outline: as §1

[7] = bistrispropane buffer, pH 6, pH 6.0, read-out: Solubility pH 6.0
[8] = bistrispropane buffer, pH 6.5, pH 6.5, read-out: Solubility pH 6.5
[9] = bistrispropane buffer, pH 7, pH 7.0, read-out: Solubility pH 7.0
[10] = bistrispropane buffer, pH 7.5, pH 7.5, read-out: Solubility pH 7.5
[11] = bistrispropane buffer, pH 8, pH 8.0, read-out: Solubility pH 8.0
[12] = glycylglycine buffer, pH 3, pH 3.0, read-out: Solubility pH 3.0
[13] = glycylglycine buffer, pH 4, pH 4.0, 18 hours at room temperature, Table 2, read-out: Solubility pH 4.0
[14] = glycylglycine buffer, pH 4, pH 4.0, read-out: Solubility pH 4.0
[15] = glycylglycine buffer, pH 5, pH 5.0, read-out: Solubility pH 5.0
[16] = bistrispropane buffer, pH 7, pH 7.0, 18 hours at room temperature, Table 3, read-out: Solubility pH 7.0
[17] = bistrispropane buffer, pH 7, pH 7.0, Table 8, read-out: Solubility pH 7.0

| EC50 [1] [nM] | half-life [2] [h] | EC50 [3] [nM] | solubility at 18 h [4, 7] [µM] | solubility at 18 h [4, 8] [µM] | solubility at 18 h [4, 9] [µM] | solubility at 18 h [4, 10] [µM] | solubility at 18 h [4, 11] [µM] | solubility at 18 h [4, 12] [µM] | solubility at 18 h [4, 13] [µM] | solubility at 18 h [4, 14] [µM] | solubility at 18 h [4, 15] [µM] | EC50 [5] [nM] | EC50 [6] [nM] | solubility at 18 h [4, 16] [µM] | solubility at 18 h [4, 17] [µM] | solubility at 18 h ([4]; bistrispropane buffer, pH 7, pH 7.0, Table 9, read-out: Solubility pH 7.0) [µM] | solubility at 18 h ([4]; bistrispropane buffer, pH 7.5, pH 7.5, Table 9, read-out: Solubility pH 7.5) [µM] | Compound |
| --- | --- | --- | --- | --- | --- | --- | --- | --- | --- | --- | --- | --- | --- | --- | --- | --- | --- | --- |
| 0.0853 | 106 | 0.0885 | > 200 | 44 (≈ 209 µg/mL) | 29 (≈ 137 µg/mL) | 157 (≈ 744 µg/mL) | > 200 | > 200 | > 200 | > 200 | > 200 | 0.208 | 0.962 |  |  |  |  | CC[C@H](C)[C@H](NC(=O)[C@@H]1CCCN1C(=O)CNC(=O)[C@H](Cc1ccccc1)NC(=O)[C@H](CC(N)=O)NC(=O)[C@H](CC(N)=O)NC(=O)[C@H](CO)NC(=O)[C@H](CO)NC(=O)[C@H](Cc1cnc[nH]1)NC(=O)[C@H](Cc1cnc[nH]1)NC(=O)[C@H](CC(C)C)NC(=O)[C@H](Cc1ccccc1)NC(=O)[C@H](CCC(=O)O)NC(=O)[C@H](C)NC(=O)[C@H](CC(C)C)NC(=O)[C@H](CCCNC(=N)N)NC(=O)[C@H](CCC(N)=O)NC(=O)[C@@H](NC(=O)[C@H](C)NC(=O)[C@@H]1CSSC[C@H](NC(=O)[C@H](Cc2cnc[nH]2)NC(=O)[C@H](Cc2cnc[nH]2)NC(=O)[C@H](Cc2cnc[nH]2)NC(=O)CC[C@H](NC(=O)CCCCCCCCCCCCCCCCCCC(=O)O)C(=O)O)C(=O)N[C@@H](CC(N)=O)C(=O)N[C@@H]([C@@H](C)O)C(=O)N[C@@H](C)C(=O)N[C@@H]([C@@H](C)O)C(=O)N1)[C@@H](C)O)C(=O)N[C@@H](CC(C)C)C(=O)N1CCC[C@H]1C(=O)N1CCC[C@H]1C(=O)N[C@H](C(=O)N[C@@H](CC(N)=O)C(=O)N[C@H](C(=O)NCC(=O)N[C@@H](CO)C(=O)N[C@@H](CC(N)=O)C(=O)N[C@H](C(=O)N[C@@H](Cc1ccc(O)cc1)C(N)=O)[C@@H](C)O)C(C)C)[C@@H](C)O [Example 11, N-alpha-[(S)-4-Carboxy-4-(19-carboxynonadecanoylamino)butyryl]-His-His-[His1,Glu14,His17]-pramlintide] ({C20 diacid-γGlu}-HHHCNTATCATQRLAEFLHHSSNNFGPILPPTNVGSNTY-NH2; disulfide 4-9) |
| 0.062 | 105 | 0.16 | > 200 | > 200 | > 200 | > 200 | > 200 | > 200 | > 200 | > 200 | > 200 | 0.0537 | 0.076 | > 200 | > 200 | > 200 | > 200 | CC[C@H](C)[C@H](NC(=O)[C@@H]1CCCN1C(=O)CNC(=O)[C@H](Cc1ccccc1)NC(=O)[C@H](CC(N)=O)NC(=O)[C@H](CC(N)=O)NC(=O)[C@H](CO)NC(=O)[C@H](CO)NC(=O)[C@H](Cc1c[nH]cn1)NC(=O)[C@H](Cc1cnc[nH]1)NC(=O)[C@H](CC(C)C)NC(=O)[C@H](Cc1ccccc1)NC(=O)[C@H](CCC(=O)O)NC(=O)[C@H](C)NC(=O)[C@H](CC(C)C)NC(=O)[C@H](CCCNC(=N)N)NC(=O)[C@H](CCC(N)=O)NC(=O)[C@@H](NC(=O)[C@H](C)NC(=O)[C@@H]1CSSC[C@H](NC(=O)[C@H](CCCCN)NC(=O)CC[C@H](NC(=O)CCCCCCCCCCCCCCCCCCC(=O)O)C(=O)O)C(=O)N[C@@H](CC(N)=O)C(=O)N[C@@H]([C@@H](C)O)C(=O)N[C@@H](C)C(=O)N[C@@H]([C@@H](C)O)C(=O)N1)[C@@H](C)O)C(=O)N[C@@H](CC(C)C)C(=O)N1CCC[C@H]1C(=O)N1CCC[C@H]1C(=O)N[C@H](C(=O)N[C@@H](CC(N)=O)C(=O)N[C@H](C(=O)NCC(=O)N[C@@H](CO)C(=O)N[C@@H](CC(N)=O)C(=O)N[C@H](C(=O)N1CCC[C@H]1C(N)=O)[C@@H](C)O)C(C)C)[C@@H](C)O [Example 52, N-alpha-[(S)-4-Carboxy-4-(19-carboxynonadecanoylamino)butyryl]-[Glu14,His17,Pro37]-pramlintide] ({C20 diacid-γGlu}-KCNTATCATQRLAEFLHHSSNNFGPILPPTNVGSNTP-NH2; disulfide 2-7) |
| 0.0925 |  | 0.121 | > 200 | > 200 | > 200 | > 200 | > 200 | > 200 | > 200 | > 200 | > 200 | 0.067 | 0.109 | > 200 | > 200 |  |  | CC[C@H](C)[C@H](NC(=O)[C@@H]1CCCN1C(=O)CNC(=O)[C@H](Cc1ccccc1)NC(=O)[C@H](CC(N)=O)NC(=O)[C@H](CC(N)=O)NC(=O)[C@H](CO)NC(=O)[C@H](CO)NC(=O)[C@H](Cc1c[nH]cn1)NC(=O)[C@H](Cc1cnc[nH]1)NC(=O)[C@H](CC(C)C)NC(=O)[C@H](Cc1ccccc1)NC(=O)[C@H](CCC(=O)O)NC(=O)[C@H](C)NC(=O)[C@H](CC(C)C)NC(=O)[C@H](CCCNC(=N)N)NC(=O)[C@H](CCC(N)=O)NC(=O)[C@@H](NC(=O)[C@H](C)NC(=O)[C@@H]1CSSC[C@H](NC(=O)[C@H](Cc2cnc[nH]2)NC(=O)CC[C@H](NC(=O)CCCCCCCCCCCCCCCCCCC(=O)O)C(=O)O)C(=O)N[C@@H](CC(N)=O)C(=O)N[C@@H]([C@@H](C)O)C(=O)N[C@@H](C)C(=O)N[C@@H]([C@@H](C)O)C(=O)N1)[C@@H](C)O)C(=O)N[C@@H](CC(C)C)C(=O)N1CCC[C@H]1C(=O)N1CCC[C@H]1C(=O)N[C@H](C(=O)N[C@@H](CC(N)=O)C(=O)N[C@H](C(=O)NCC(=O)N[C@@H](CO)C(=O)N[C@@H](CC(N)=O)C(=O)N[C@H](C(=O)N1CCC[C@H]1C(N)=O)[C@@H](C)O)C(C)C)[C@@H](C)O [Example 84, N-alpha-[(S)-4-Carboxy-4-(19-carboxynonadecanoylamino)butyryl]-[His1,Glu14,His17,Pro37]-pramlintide] ({C20 diacid-γGlu}-HCNTATCATQRLAEFLHHSSNNFGPILPPTNVGSNTP-NH2; disulfide 2-7) |

— US8722849B2, “Polypeptides” (Novo Nordisk A/S, priority 2011, dated 2014)
